# Patent US20140295012A1, “LATENT HUMAN IMMUNODEFICIENCY VIRUS REACTIVATION” (priority 2011, published 2014)
# *1 amine or outer side, *2 acyl side, *3 side chain or, on linkers, in order; H or OH if unused. Where a SMILES comes first, the peptide text is derived from it. Bridges are numbered along the chain shown (N, C = ends). Roman numbers before positions name the chains, in order. [ ]: non-standard residue; d: D form. Actinocin(9to1) = Cc1c2oc3c(C)ccc(C(=O)[*:1])c3nc-2c(C(=O)[*:2])c(N)c1=O; NMeV = CN[C@H](C(=O)O)C(C)C; Sar = CNCC(=O)O
# B1: HRF: flagellin polypeptide from Massilia timonae (SEQ ID NO:10), used as bacterial culture supernatant (protein)
# chain: MASVINTNVPSLNSQRNLSTSQAQLNTSIQRLSSGMRINSAKDDAAGLAISDRMNSQIKGMTQATRNANDGVSMAQTAEGALSSSGDILQRIRELAVQSSNSSNSASDRKALQTEVTQLSSELNRIANTTEFNGQKLMDGTLGTANFQVGANAGQLISMTGANFNTSVYGNNQIAGDAAKAAATTSAAATGAFTISGYLGTSAAINTTDADTAKTIAASINNVTGDTGVTATARTDSFLKSAGGAHTMSLASDNSGTGEAVDISFTVGDGGDTADDYAAAISAFNAQTAKTGVTAEYDAVEKGLKLTNSAGENISLTNKAGSADIDMDTYAADGALMASALTLEAGDVGVANGRVTMDSEKSFSVAEGTDTGFELADSSALKSVAKIDISDFEGAQEAIKVADAALSAVNSQRAEYGALQSRFESAISNLSSSTENLSASRSRIVDTDFAAETAKMTRGQILQQAGTSMLAQANSLPNGVLSLLRG
# Experiments:
# Assay type in all cases: cell-based
# [1] = system: latently HIV-1 infected J89GFP T cells; assay: HIV-1 reactivation / priming in latently HIV-1 infected J89GFP T cells (GFP, flow cytometry, HTS)
# Procedure: Flow cytometry. Infection levels in the cell cultures were monitored by flow cytometric (FCM) analysis of GFP expression. […] Cell sorting experiments were performed using a FACSAria™ Flow Cytometer (Becton&Dickinson). Data analysis was performed using either CellQuest (Becton&Dickinson) or GUAVA Express (GUAVA Technologies, Inc.).
# P-TEFb/HEXIM-1 complex = assay: Glycerol gradient sedimentation analysis of P-TEFb/HEXIM-1 complex in J89GFP cells (Western blot)
# Procedure: J89GFP cells were left untreated, treated with a high concentration of dactinomycin for 1 hour or with the physiological optimal concentration (0.004 μg/ml or 0.01 μg/ml) for 18 hours. Cell lysates were separated on a glycerol gradient (10-45%). Each gradient fraction was separated on a 10% SDS-PAGE gel and transferred by Western blot. […] Band densities were determined using ImageJ and are presented as relative band density. […] Band densities were determined using ImageJ and are presented as relative band density.
# Ten million J89GFP or CA5 T cells were left untreated or treated with 0.004 μg/mL, 0.01 μg/ml or 1 μg/mL dactinomycin for 18 hours or 1 hour, respectively. Cells were washed twice with cold PBS, then lysed for 30 minutes on ice in lysis buffer (0.5% TritonX100, 20 mM HEPES (pH7.9), 150 mM NaCl, 20 mM KCl, 2 mM MgCl2, 1 mM DTT, 0.2 mM EDTA, and protease inhibitor cocktail (P8340; SIGMA)), followed by centrifugation at 14,000 rpm for 10 minutes. The same amount of protein lysate was fractionated on 5 ml of a 10-45% glycerol gradient in lysis buffer in a SW-Ti55 rotor (Beckman Coulter; Miami, Fla.) for 16 hours at 45,000 rpm. Fractions were resolved on 10% SDS-PAGE and transferred to polyvinylidene fluoride membrane. The antibodies used for Western blotting were rabbit anti-Cdk9 (sc-484; Santa Cruz Biotechnology; Santa Cruz, Calif.) and rabbit anti-HEXIM1 (ab25388; Abcam; Cambridge, Mass.), respectively.
# To test the idea that dactinomycin primed latent HIV-1 infection for reactivation by releasing P-TEFb (a complex of CDK9 and Cyclin T1) from its complex with HEXIM-1, the latently HIV-1 infected J89GFP or CA5 T cells were treated with 1.0 μg/ml dactinomycin for 1 hour or with the physiological optimal concentration of 0.004 μg/ml for 18 hours. Cell lysates were then separated on a glycerol gradient (10-45%) to reveal possible changes in the composition of the P-TEFb/HEXIM-1 complex. […] Each gradient fraction was separated on a SDS-PAGE gel and subjected to Western blotting. […] Similar results were obtained using anti-HEXIM-1 antibody. […] The minimal dactinomycin concentration to induce a shift towards the small complex was 0.01 μg/ml of dactinomycin. […] Similar results were obtained using the latently infected CA5 T cells.
# NF-κB p50 = NF-κB p50 activity in nuclear extracts of Jurkat cells (TransAM NF-κB family ELISA)
# Procedure: (§1) FIGS. 7A-7D are graphs showing the kinetics of HRF-mediated induction of NF-κB activity. Jurkat or latently HIV-1 infected CA5 T cells were stimulated with optimal concentrations of PMA and HRF, and cells were harvested at the indicated time points. Nuclear extracts were generated and (FIGS. 7A and 7C) NF-κB p50 activity and (FIGS. 7B and 7D) NF-κB p65 activity were determined using the TransAM™ NF-κB family ELISA kit (Active Motif; Carlsbad, Calif.).
# (§2) Cells were grown in RPMI medium supplemented with 10% FBS and 1% PSG to approximately 5×10^5 cells per milliliter. Cells were centrifuged and resuspended in fresh pre-warmed medium. PMA, HRF and/or JNKiV were added immediately at the indicated concentrations. The final cell density for the assay was 1×10^6 cells per milliliter. The culture flasks were kept in a humidified CO2 incubator at 37° C. For each time point, a 1 ml cell suspension was removed and immediately centrifuged at full speed in a tabletop centrifuge for 30 seconds. […] The protein concentration of the extracts was determined by using the BCA protein assay Kit (ThermoFisher). […] The absorbance at 595 nm was determined using a 96 well plate reader (Synergy HT, BIO-Tek; Winooski, Vt.).
# (§3) NF-κB activity in nuclear extracts was quantified using the TransAM™ NF-κB family ELISA kit from Active Motif, Inc. (Carlsbad, Calif.) according to the manufacturer's instructions.
# NF-κB p65 = NF-κB p65 activity in nuclear extracts of Jurkat cells (TransAM NF-κB family ELISA)
# Procedure: as §1, §2, §3
# Jurkat T cells = assay: Protection of Jurkat T cells from poly (I:C) induced apoptosis (viability); settings: compared with Salmonella typhimurium flagellin
# Procedure: High concentrations of poly (I:C) trigger apoptosis in Jurkat cells and reduce cell viability. Viability of control cells (C) was compared to the viability of cell cultures treated with poly (I:C) (10 μg/ml) and increasing amounts of either flagellin or HRF.
# cell culture = assay: Cytotoxicity in cell culture and therapeutic index
# Text: The HRFs provided herein show little to no cytotoxicity and have a therapeutic index greater than 300. A therapeutic index is a comparison of the amount of a therapeutic agent that causes a therapeutic effect to the amount that causes death. The therapeutic index is a ratio given by the lethal dose of a drug or agent for 50% of the population (LD50) divided by the minimum effective therapeutic dose for 50% of the population (ED50). A high therapeutic index is preferable.
Molecule,priming of latent HIV-1 infection for reactivation ([1]; in combination with sub-optimal TNF-α),HIV-1 reactivating capacity by itself ([1]; relative to latently infected control cells),shift of CDK9 from large to small complex (P-TEFb/HEXIM-1 complex; 0.004 μg/ml for 18 hours),shift of HEXIM-1 towards the small complex (P-TEFb/HEXIM-1 complex; 0.004 μg/ml for 18 hours),"release of P-TEFb from its complex with HEXIM-1 (anti-CDK9) (P-TEFb/HEXIM-1 complex; 1 μg/ml for 1 hour, J89GFP)",minimal concentration to induce a shift of HEXIM-1 towards the small complex (P-TEFb/HEXIM-1 complex; 18 hours) [µg/mL],NF-κB p50 activation amplitude compared to PMA stimulation (NF-κB p50; Jurkat cells) [fold],duration of induced NF-κB activity in comparison to PMA (NF-κB p50; parental Jurkat T cells),NF-κB p65 activation amplitude compared to PMA stimulation (NF-κB p65) [fold],protection from induced apoptosis (Jurkat T cells),cytotoxicity in cell culture (cell culture),therapeutic index (cell culture; LD50/ED50)
"Cc1c2oc3c(C)ccc(C(=O)N[C@@H]4C(=O)N[C@H](C(C)C)C(=O)N5CCC[C@H]5C(=O)N(C)CC(=O)N(C)[C@@H](C(C)C)C(=O)O[C@@H]4C)c3nc-2c(C(=O)N[C@@H]2C(=O)N[C@H](C(C)C)C(=O)N3CCC[C@H]3C(=O)N(C)CC(=O)N(C)[C@@H](C(C)C)C(=O)O[C@@H]2C)c(N)c1=O [dactinomycin] (I: T[dV]P[Sar][NMeV] / II: T[dV]P[Sar][NMeV]; ester I:1-I:C, II:1-II:C; linker I:N-II:N via Actinocin(9to1))",potently primed latent HIV-1 infection for reactivation,did not exhibit HIV-1 reactivating capacity by itself,shift of CDK9 presence from the large complex to the small complex was also detected,no shift towards the small complex was observed,quantitatively released P-TEFb,0.01,,,,,,
B1,,,,,,,~3,less sustained,~3,greater efficacy,far less cytotoxic,> 300
